In BindingDB's records for doi:10.1021/jm00031a017 (University of California, 1994):

System: recombinant HIV-2 protease
Test: In vitro inhibition of recombinant HIV-2 protease expressed in Escherichia coli strain X90

In the case of `O=C(C=CC[N+]1([O-])CCC(O)(c2ccc(Cl)cc2)CC1)c1ccc(F)cc1` (stereo unspecified) [(E)-4-[4-(4-Chloro-phenyl)-4-hydroxy-1-oxy-piperidin-1-yl]-1-(4-fluoro-phenyl)-but-2-en-1-one], the IC50 is reported as 40 µM.
